Measured values published in PubChem BioAssay AID488818 (NMMLSC, 2010).
Activity calls are given as the source filed them.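 How the source made its calls: active means fluorescence change from solvent-only control to top dose above 25; inactive means the rest.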

System: S. cerevisiae s288c autofluorescence, flow cytometry MCF, 3 h
Experiment: fluorescence artefact check, untagged yeast strain – cherry pick 3, multiplex, flow cytometry, artefact control for yeast TOR pathway GFP screen, SAR follow-up (AID 488818)
Conditions: at 33.3 µM; hits give high values

Fluorescence change, inactive:
CCCOCc1ccc(O)c2ncccc12 0.25, Cc1ccc(C(=O)Nc2nc(-c3ccccn3)cs2)o1 0.24, CNc1nc(C)c([N+](=O)[O-])c(Nc2ccc(OC)cc2)n1 0.06, CNc1nc(N)c([N+](=O)[O-])c(Nc2cccc(Cl)c2)n1 0.08, O=C(O)c1ccc2cccnc2c1O 0.12, CCC(C)Nc1nc(N)c([N+](=O)[O-])c(Nc2ccccc2OC)n1 (stereo unspecified) 0.06, Cc1ccc2c(C)ccc(O)c2n1 0, COc1cccc2c(Cl)c(CCCl)c(C)nc12 0.24, Nc1ncnc(Nc2cc(Cl)cc(Cl)c2)c1[N+](=O)[O-] 0.12, Nc1nc(NCCOCCO)nc(Nc2cccc(F)c2)c1[N+](=O)[O-] 0.12, N#Cc1c(N)nc(N)nc1Nc1ccc(Br)cc1 0.12, Cc1nc2c(O)cccc2cc1CO 0.06, COc1ccccc1Nc1nc(NCCC(C)C)nc(N)c1[N+](=O)[O-] 0.07, O=C(O)c1ccc2cccc(O)c2n1 0.18, CNc1nc(N)c([N+](=O)[O-])c(Nc2ccccc2OC)n1 0.08, COc1ccc(OC)c(Nc2nc(NCCC(C)C)nc(N)c2[N+](=O)[O-])c1 0.12, COc1ccccc1Nc1nc(NCCO)nc(N)c1[N+](=O)[O-] 0.19, COCCNc1nc(N)c([N+](=O)[O-])c(Nc2ccc(F)cc2)n1 0.18, Oc1ccc(Cl)c2cccnc12 0.19, Oc1c(Cl)cc(Cl)c2cccnc12 2.85, Cc1nc(Nc2ccc(Br)cc2Br)c([N+](=O)[O-])c(=O)[nH]1 0, Oc1c(Br)cc(Br)c2cccnc12 3.5, CCc1sc(C(=O)Nc2nc(-c3ccccn3)cs2)cc1C 0.65, Cc1ccc(NN2C(=O)C=C(c3ccccc3)C2=O)cc1 0.65, O=C(Nc1nc(-c2ccccn2)cs1)c1ccccc1-n1cnnn1 0.07, Cc1ccc2c(Cl)cc(Cl)c(O)c2n1 0.81, CCC(C)Nc1nc(N)c([N+](=O)[O-])c(Nc2cc(OC)ccc2OC)n1 (stereo unspecified) 0.8, Oc1c(I)cc(Cl)c2cccnc12 2.85, COc1ccccc1-c1cc(C(F)(F)F)nc(S(=O)(=O)CCCC(=O)NC(C)C)n1 0.18, COc1ccc(OC)c2c(=O)cc(C(=O)O)[nH]c12 0.06, Cn1cccc1C(=O)Nc1nc(-c2ccccn2)cs1 0.3, COCC(C)NC(=O)CCS(=O)(=O)c1nc(-c2ccc(OC)cc2)cc(C(F)(F)F)n1 (stereo unspecified) 0.12, CC(=O)NC(C)c1cc(Cl)c2cccnc2c1O (stereo unspecified) 0.25, Cc1cccc(C)c1Nc1ncnc(N)c1[N+](=O)[O-] 0.12, COc1ccccc1-c1cc(C(F)(F)F)nc(S(=O)(=O)CCCC(=O)O)n1 0.5, COc1ccc(Nc2nc(NN)nc(C)c2[N+](=O)[O-])cc1 0.06, CCOC(=O)CS(=O)(=O)c1nc(-c2ccccc2)cc(C(F)(F)F)n1 0.24, CC1=NNC(=O)/C1=C\c1cn(-c2ccccc2)nc1-c1ccc(F)cc1 0.24, COCCCNc1nc(N)c([N+](=O)[O-])c(Nc2ccccc2OC)n1 0.06, NC(=O)c1ccnc2c(O)cccc12 0.06, Oc1ccc(F)c2cccnc12 0.06
